Data on four molecules can be found in US5262417A, “Antibacterial quinolone compounds” (The Upjohn Company, priority 1991, dated 1993).

Holding throughout (assay): Minimum inhibitory concentration (MIC) by agar dilution
Holding throughout (assay type): cell-based

Experiment [1] has as its system Klebsiella pneumoniae. In a few lines: (§1)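 First, test compounds are diluted serially into molten MHA held at 47° C. Next, the agar is poured and left to set. Finally, overnight 35° C cultures, adjusted to 0.5 McFarland in TSB and diluted 1:20, are spotted onto the plates.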
Experiment [2] has as its system Serratia marcescens. The following applies: 20 h. In a few lines: as §1
Experiment [3] has as its system Citerobacter freundii. In a few lines:
as §1

For experiment [4], the system named is Streptococcus pneumoniae. The following applies: Streptococcus pneumoniae. The essentials:
as §1

Experiment [5] deals with Pseudomonas aeruginosa. The following applies: Pseudomonas aeruginosa. The essentials:
as §1

Experiment [6] deals with Proteus penneri. The following applies: Proteus penneri. The essentials: as §1
In experiment [7] the test system is Staphylococcus aureus. The note with it: Staphylococcus aureus. In a few lines: as §1
Experiment [8] has as its system Staphylococcus epidermidis. The following applies: 20 h. The essentials: as §1
For experiment [9], the system named is Acinetobacter calcoaceticus. The note with it: Acinetobacter calcoaceticus. In a few lines: as §1
The test system of experiment [10] is Escherichia coli. The note with it: Escherichia coli. In a few lines: as §1
Experiment [11] relates to Streptococcus pyogenes. The note with it: Streptococcus pyogenes. In a few lines:
as §1

The subject of experiment [12] is Streptococcus faecalis. The following applies: Enterococcus faecalis. The essentials:
as §1

In experiment [13] the test system is Enterobacter cloacae. The essentials: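 Bacteria grown overnight at 35 °C, adjusted to 0.5 McFarland in TSB, diluted 1:20 and spotted at 1 μl per spot by replicator.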
The mark [14] stands for this setting: 20 h, read-out: MINIMUM INHIBITORY CONCENTRATION
Where [15] appears, read: read-out: MINIMUM INHIBITORY CONCENTRATION
Setting [16] is: 20 h, read-out: MINIMUM INHIBITORY CONCENTRATION, Cult No. 41, MHA.
[17] abbreviates: 20 h, read-out: MINIMUM INHIBITORY CONCENTRATION, Cult No. 6676, MHA.
Where [18] appears, read: 20 h, read-out: MINIMUM INHIBITORY CONCENTRATION, Cult No. 9191, MHA.
[19] abbreviates: 20 h, read-out: MINIMUM INHIBITORY CONCENTRATION, Cult No. 12120, MHA.
Setting [20] is: 20 h, read-out: MINIMUM INHIBITORY CONCENTRATION, Cult No. 9679, MHA.
Setting [21] is: 20 h, read-out: MINIMUM INHIBITORY CONCENTRATION, Cult No. 6685, MHA.
Where [22] appears, read: 20 h, read-out: MINIMUM INHIBITORY CONCENTRATION, Cult No. 9213, MHA.
Where [23] appears, read: 20 h, read-out: MINIMUM INHIBITORY CONCENTRATION, Cult No. 9218, MHA.
Setting [24] is: 20 h, read-out: MINIMUM INHIBITORY CONCENTRATION, Cult No. 9271, MHA.
Setting [25] is: 20 h, read-out: MINIMUM INHIBITORY CONCENTRATION, Cult No. 12170, MHA.
[26] abbreviates: 20 h, read-out: MINIMUM INHIBITORY CONCENTRATION, Cult No. 6674, MHA.
[27] abbreviates: 20 h, read-out: MINIMUM INHIBITORY CONCENTRATION, Cult No. 9451, MHA.
Where [28] appears, read: 20 h, read-out: MINIMUM INHIBITORY CONCENTRATION, Cult No. 9855, MHA.
[29] abbreviates: 20 h, read-out: MINIMUM INHIBITORY CONCENTRATION, Cult No. 9952, MHA.
The mark [30] stands for this setting: 20 h, read-out: MINIMUM INHIBITORY CONCENTRATION, Cult No. 152, MHA.

Values after ≈ are worked out from the molar mass of the structure shown. Like-named read-outs stand apart in the source and are kept apart here.

`O=C(O)c1cn(C23CC(C2)C3)c2nc(N3CCNCC3)c(F)cc2c1=O` [No. 4, 7-(1-piperazinyl)-1-(bicyclo[1.1.1]pent-1-yl)-1,4-dihydro-6-fluoro-4-oxo-1,8-naphthyridine-3-carboxylic acid]: the MIC in [1] (setting [14]) was found to be 0.125 µg/mL (≈ 0.349 µM); in experiment [2] (setting [15]), 0.25 µg/mL (≈ 0.698 µM); in experiment [3] (setting [14]), 0.06 µg/mL (≈ 0.167 µM); in [4] (setting [16]), 2 µg/mL (≈ 5.58 µM); in [5] (setting [17]), 2 µg/mL (≈ 5.58 µM); in [5] (setting [18]), 1 µg/mL (≈ 2.79 µM). In addition, the MIC in experiment [5] (setting [19]) is 0.5 µg/mL (≈ 1.4 µM); in experiment [6] (setting [20]) it was 0.5 µg/mL (≈ 1.4 µM); in [7] (setting [21]), 0.25 µg/mL (≈ 0.698 µM); in experiment [7] (setting [22]), 0.5 µg/mL (≈ 1.4 µM); in experiment [7] (setting [23]), 0.5 µg/mL (≈ 1.4 µM); in experiment [7] (setting [24]) it was 0.5 µg/mL (≈ 1.4 µM). The MIC was 0.25 µg/mL (≈ 0.698 µM) in experiment [8] (setting [15]); 0.25 µg/mL (≈ 0.698 µM) in [9] (setting [25]); 0.06 µg/mL (≈ 0.167 µM) in experiment [10] (setting [26]); 0.06 µg/mL (≈ 0.167 µM) in [10] (setting [27]); 0.06 µg/mL (≈ 0.167 µM) in experiment [10] (setting [28]); 0.06 µg/mL (≈ 0.167 µM) in experiment [10] (setting [29]). For the same molecule, the values for the MIC in experiment [11] (setting [30]), in experiment [12] (setting [14]) and in experiment [13] (setting [14]) were 2 µg/mL (≈ 5.58 µM), 2 µg/mL (≈ 5.58 µM) and 0.06 µg/mL (≈ 0.167 µM), respectively.
In the case of `O=C(O)c1cn(C23CC(C2)C3)c2c(F)c(N3CCNCC3)c(F)cc2c1=O` [No. 1, 1-(bicyclo[1.1.1]pent-1-yl)-6,8-difluoro-1,4-dihydro-4-oxo-7-(1-piperazinyl)-3-quinolinecarboxylic acid], the MIC in experiment [1] (setting [14]) turned out to be 0.125 µg/mL (≈ 0.333 µM); in experiment [2] (setting [15]), 0.25 µg/mL (≈ 0.666 µM); in experiment [3] (setting [14]) it was 0.06 µg/mL (≈ 0.16 µM); in experiment [4] (setting [16]) it was 2 µg/mL (≈ 5.33 µM); in experiment [5] (setting [17]), 2 µg/mL (≈ 5.33 µM); in experiment [5] (setting [18]), 1 µg/mL (≈ 2.66 µM). In addition, the MIC is 1 µg/mL (≈ 2.66 µM) in [5] (setting [19]); 0.5 µg/mL (≈ 1.33 µM) in experiment [6] (setting [20]); 0.5 µg/mL (≈ 1.33 µM) in experiment [7] (20 h, read-out: MINIMUM INHIBITORY CONCENTRATION, Cult No. 3665, MHA); 0.5 µg/mL (≈ 1.33 µM) in experiment [7] (setting [21]); 1 µg/mL (≈ 2.66 µM) in experiment [7] (setting [22]); 0.5 µg/mL (≈ 1.33 µM) in experiment [7] (setting [23]). The MIC in experiment [7] (setting [24]) was 0.5 µg/mL (≈ 1.33 µM); in experiment [8] (setting [15]) it was 0.25 µg/mL (≈ 0.666 µM); in [9] (setting [25]) it was 0.25 µg/mL (≈ 0.666 µM); in experiment [10] (setting [26]), 0.06 µg/mL (≈ 0.16 µM); in experiment [10] (setting [27]), 0.06 µg/mL (≈ 0.16 µM); in [10] (setting [28]), 0.06 µg/mL (≈ 0.16 µM). Further, the MIC was 0.06 µg/mL (≈ 0.16 µM) in experiment [10] (setting [29]), 2 µg/mL (≈ 5.33 µM) in [11] (setting [30]), 2 µg/mL (≈ 5.33 µM) in experiment [12] (setting [14]) and 0.06 µg/mL (≈ 0.16 µM) in experiment [13] (setting [14]).
`O=C(O)c1cn(C23CC(C2)C3)c2c(F)c(N3CCC(O)C3)c(F)cc2c1=O` (stereo not shown) [No. 3, 7-(3-hydroxy-1-pyrrolidinyl)-1-(bicyclo[1.1.1]pent-1-yl)-1,4-dihydro-6,8-difluoro-4-oxo-3-quinolinecarboxylic acid]: the MIC was found to be 0.5 µg/mL (≈ 1.33 µM) in experiment [1] (setting [14]); 1 µg/mL (≈ 2.66 µM) in [2] (setting [15]); 0.25 µg/mL (≈ 0.664 µM) in [3] (setting [14]); 1 µg/mL (≈ 2.66 µM) in experiment [4] (setting [16]); 2 µg/mL (≈ 5.31 µM) in experiment [5] (setting [17]); 2 µg/mL (≈ 5.31 µM) in experiment [5] (setting [18]). For the same molecule, the MIC in experiment [5] (setting [19]) came to 1 µg/mL (≈ 2.66 µM); in experiment [6] (setting [20]) it was 0.5 µg/mL (≈ 1.33 µM); in [7] (setting [21]), 0.06 µg/mL (≈ 0.159 µM); in experiment [7] (setting [22]), 0.125 µg/mL (≈ 0.332 µM); in experiment [7] (setting [23]), 0.125 µg/mL (≈ 0.332 µM); in experiment [7] (setting [24]), 0.125 µg/mL (≈ 0.332 µM). For the same molecule, the MIC in experiment [8] (setting [15]) was 0.125 µg/mL (≈ 0.332 µM); in [9] (setting [25]) it was 0.25 µg/mL (≈ 0.664 µM); in experiment [10] (setting [26]), 0.25 µg/mL (≈ 0.664 µM); in [10] (setting [27]) it was 0.25 µg/mL (≈ 0.664 µM); in experiment [10] (setting [28]), 0.25 µg/mL (≈ 0.664 µM); in experiment [10] (setting [29]), 0.125 µg/mL (≈ 0.332 µM). For the same molecule, the figures for the MIC in [11] (setting [30]), in experiment [12] (setting [14]) and in experiment [13] (setting [14]) were 2 µg/mL (≈ 5.31 µM), 1 µg/mL (≈ 2.66 µM) and 0.25 µg/mL (≈ 0.664 µM), respectively.
As to `C#CC(C)(C)n1cc(C(=O)O)c(=O)c2cc(F)c(N3CCC(N)C3)c(F)c21` (racemic) [B], the MIC in experiment [1] (UC12081, 20 h, K. pneumoniae UC 12081, Table CI, read-out: Minimum Inhibitory Concentration) worked out at 0.25 µg/mL (≈ 0.666 µM); in [2] (S. marcescens, UC number not given, Table CI, read-out: Minimum Inhibitory Concentration), 1 µg/mL (≈ 2.66 µM); in [3] (Citrobacter freundii, UC3507, 20 h, C. freundii UC 3507, Table CI, read-out: Minimum Inhibitory Concentration) it was 0.125 µg/mL (≈ 0.333 µM); in experiment [4] (UC41, 20 h, S. pneumoniae UC 41, Table CI, read-out: Minimum Inhibitory Concentration), 2 µg/mL (≈ 5.33 µM); in experiment [5] (UC6676, 20 h, Ps. aeruginosa UC 6676, Table CI, read-out: Minimum Inhibitory Concentration) it was 2 µg/mL (≈ 5.33 µM); in experiment [5] (UC9191, 20 h, Ps. aeruginosa UC 9191, Table CI, read-out: Minimum Inhibitory Concentration), 2 µg/mL (≈ 5.33 µM). Also, the MIC in experiment [5] (UC12120, 20 h, Ps. aeruginosa UC 12120, Table CI, read-out: Minimum Inhibitory Concentration) was 1 µg/mL (≈ 2.66 µM); in experiment [6] (UC9679, 20 h, P. penneri UC 9679, Table CI, read-out: Minimum Inhibitory Concentration), 1 µg/mL (≈ 2.66 µM); in [7] (UC6685, 20 h, S. aureus UC 6685, Table CI, read-out: Minimum Inhibitory Concentration) it was 0.25 µg/mL (≈ 0.666 µM); in [7] (UC9213, 20 h, S. aureus UC 9213, Table CI, read-out: Minimum Inhibitory Concentration) it was 0.5 µg/mL (≈ 1.33 µM); in experiment [7] (UC9218, 20 h, S. aureus UC 9218, Table CI, read-out: Minimum Inhibitory Concentration) it was 0.5 µg/mL (≈ 1.33 µM); in [7] (UC9271, 20 h, S. aureus UC 9271, Table CI, read-out: Minimum Inhibitory Concentration), 0.5 µg/mL (≈ 1.33 µM). In addition, the MIC in experiment [8] (S. epidermidis 30031, Table CI, read-out: Minimum Inhibitory Concentration) is 0.25 µg/mL (≈ 0.666 µM); in experiment [9] (UC12170, 20 h, A. calcoaceticus UC 12170, Table CI, read-out: Minimum Inhibitory Concentration), 0.5 µg/mL (≈ 1.33 µM); in experiment [10] (UC6674, 20 h, E. coli UC 6674, Table CI, read-out: Minimum Inhibitory Concentration), 0.125 µg/mL (≈ 0.333 µM); in experiment [10] (UC9451, 20 h, E. coli UC 9451, Table CI, read-out: Minimum Inhibitory Concentration), 0.125 µg/mL (≈ 0.333 µM); in [10] (UC9855, 20 h, E. coli UC 9855, Table CI, read-out: Minimum Inhibitory Concentration) it was 0.25 µg/mL (≈ 0.666 µM); in [10] (UC9952, 20 h, E. coli UC 9952, Table CI, read-out: Minimum Inhibitory Concentration), 0.125 µg/mL (≈ 0.333 µM). In addition, the MIC in [11] (UC152, 20 h, S. pyogenes UC 152, Table CI, read-out: Minimum Inhibitory Concentration) was determined as 1 µg/mL (≈ 2.66 µM); in experiment [12] (UC9217, 20 h, S. faecalis UC 9217, Table CI, read-out: Minimum Inhibitory Concentration), 2 µg/mL (≈ 5.33 µM); in experiment [13] (UC9382, 20 h, E. cloacae UC 9382, Table CI, read-out: Minimum Inhibitory Concentration) it was 0.25 µg/mL (≈ 0.666 µM).
